# Assay results: PubChem BioAssay AID1963421 (Molecular Pharmacology Branch, DTP, NCI, 2024)
# pIC50: −log10 of the molar value. “And” between values parts separate entries of the source, which are not always exact repeats. Identical values can stand only once.
# Tested on: 519858-162-T-J1-PDC complex spheroid growth, % test/control
# Assay: Anticancer human tumor 519858-162-T-J1-PDC patient-derived colon adenocarcinoma cell line growth inhibition [Asc]
# Conditions: for viability, T/C: stronger effect = lower value
# Outline: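 Complex spheroids combining tumor cells with HUVEC endothelial cells and human MSCs, at 37 degrees C, 5% CO2; agents tested alone or combined, half-log dilutions from at or near clinical Cmax, or 10 microM if Cmax unknown.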
# [1] = curve of first compound, second compound 0.0316 µM
# [2] = curve of first compound, second compound 0.1 µM
# [3] = curve of first compound, second compound 0.316 µM
# [4] = curve of first compound, second compound 1 µM
# [5] = second compound 0.0316 µM, first compound 0.00949 µM
# [6] = second compound 0.0316 µM, first compound 0.03 µM
# [7] = second compound 0.0316 µM, first compound 0.0949 µM
# [8] = second compound 0.0316 µM, first compound 0.3 µM
# [9] = second compound 0.0316 µM, first compound 0.949 µM
# [10] = second compound 0.0316 µM, first compound 3 µM
# [11] = second compound 0.1 µM, first compound 0.00949 µM
# [12] = second compound 0.1 µM, first compound 0.03 µM
# [13] = second compound 0.1 µM, first compound 0.0949 µM
# [14] = second compound 0.1 µM, first compound 0.3 µM
# [15] = second compound 0.1 µM, first compound 0.949 µM
# [16] = second compound 0.1 µM, first compound 3 µM
# [17] = second compound 0.316 µM, first compound 0.00949 µM
# [18] = second compound 0.316 µM, first compound 0.03 µM
# [19] = second compound 0.316 µM, first compound 0.0949 µM
# [20] = second compound 0.316 µM, first compound 0.3 µM
# [21] = second compound 0.316 µM, first compound 0.949 µM
# [22] = second compound 0.316 µM, first compound 3 µM
# [23] = second compound 1 µM, first compound 0.00949 µM
# [24] = second compound 1 µM, first compound 0.03 µM
# [25] = second compound 1 µM, first compound 0.0949 µM
# [26] = second compound 1 µM, first compound 0.3 µM
# [27] = second compound 1 µM, first compound 0.949 µM
# [28] = second compound 1 µM, first compound 3 µM
# 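Further: seven day drug exposure begun three days after spheroid seeding.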
# 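Wherever viability, T/C is given: 100% = DMSO vehicle wells and lower values mean less viable spheroid.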
smiles,measurement,setting,value
C=CC(=O)N1CCN(c2nc(=O)n(-c3c(C)ccnc3C(C)C)c3nc(-c4c(O)cccc4F)c(F)cc23)C(C)C1 (stereo not drawn) + CCN1C(C(=O)NC23CCC(C(=O)O)(CC2)CC3)C(c2cccc(Cl)c2F)C2(C(=O)Nc3cc(Cl)ccc32)C12CCCCC2,pIC50,"curve of first compound, second compound 0.00949 µM",< 5.00
same,pIC50,"curve of first compound, second compound 0.03 µM",< 5.00
same,pIC50,"curve of first compound, second compound 0.0949 µM",< 5.00
same,pIC50,"curve of first compound, second compound 0.3 µM",< 5.00
same,pIC50,"curve of first compound, second compound 0.949 µM",< 5.00
same,pIC50,"curve of first compound, second compound 3 µM",< 5.00
same,"viability, T/C","second compound 0.00949 µM, first compound 0.0316 µM",147%
same,"viability, T/C","second compound 0.00949 µM, first compound 0.1 µM",110%
same,"viability, T/C","second compound 0.00949 µM, first compound 0.316 µM",97.8%
same,"viability, T/C","second compound 0.00949 µM, first compound 1 µM",108%
same,"viability, T/C","second compound 0.00949 µM, first compound 3.16 µM",99.4%
same,"viability, T/C","second compound 0.00949 µM, first compound 10 µM",82%
same,"viability, T/C","second compound 0.03 µM, first compound 0.0316 µM",112%
same,"viability, T/C","second compound 0.03 µM, first compound 0.1 µM",87.7%
same,"viability, T/C","second compound 0.03 µM, first compound 0.316 µM",115%
same,"viability, T/C","second compound 0.03 µM, first compound 1 µM",91.9%
same,"viability, T/C","second compound 0.03 µM, first compound 3.16 µM",75.2%
same,"viability, T/C","second compound 0.03 µM, first compound 10 µM",79.7%
same,"viability, T/C","second compound 0.0949 µM, first compound 0.0316 µM",92.7%
same,"viability, T/C","second compound 0.0949 µM, first compound 0.1 µM",106%
same,"viability, T/C","second compound 0.0949 µM, first compound 0.316 µM",85.3%
same,"viability, T/C","second compound 0.0949 µM, first compound 1 µM",99.5%
same,"viability, T/C","second compound 0.0949 µM, first compound 3.16 µM",89.6%
same,"viability, T/C","second compound 0.0949 µM, first compound 10 µM",87.8%
same,"viability, T/C","second compound 0.3 µM, first compound 0.0316 µM",88.7%
same,"viability, T/C","second compound 0.3 µM, first compound 0.1 µM",89.3%
same,"viability, T/C","second compound 0.3 µM, first compound 0.316 µM",112%
same,"viability, T/C","second compound 0.3 µM, first compound 1 µM",90%
same,"viability, T/C","second compound 0.3 µM, first compound 3.16 µM",106%
same,"viability, T/C","second compound 0.3 µM, first compound 10 µM",116%
same,"viability, T/C","second compound 0.949 µM, first compound 0.0316 µM",114%
same,"viability, T/C","second compound 0.949 µM, first compound 0.1 µM",78.7%
same,"viability, T/C","second compound 0.949 µM, first compound 0.316 µM",111%
same,"viability, T/C","second compound 0.949 µM, first compound 1 µM",70.8%
same,"viability, T/C","second compound 0.949 µM, first compound 3.16 µM",86.1%
same,"viability, T/C","second compound 0.949 µM, first compound 10 µM",70%
same,"viability, T/C","second compound 3 µM, first compound 0.0316 µM",86.9%
same,"viability, T/C","second compound 3 µM, first compound 0.1 µM",81.7%
same,"viability, T/C","second compound 3 µM, first compound 0.316 µM",87%
same,"viability, T/C","second compound 3 µM, first compound 1 µM",75.1%
same,"viability, T/C","second compound 3 µM, first compound 3.16 µM",74.9%
same,"viability, T/C","second compound 3 µM, first compound 10 µM",91.7%
C#Cc1c(F)ccc2cc(O)cc(-c3ncc4c(N5CC6CCC(C5)N6)nc(OCC56CCCN5CC(F)C6)nc4c3F)c12 (stereo not drawn),"viability, T/C",compound 0.0316 µM,89.4% and 98.1% and 81.9%
same,"viability, T/C",compound 0.1 µM,126% and 101% and 93.3%
same,"viability, T/C",compound 0.316 µM,102% and 92.8% and 90.6%
same,"viability, T/C",compound 1 µM,88.3% and 89.3% and 83.3%
same,"viability, T/C",compound 3.16 µM,86.9% and 78.3% and 64.9%
same,"viability, T/C",compound 10 µM,68.7% and 66.2% and 72.1%
same,pIC50,curve of compound,< 5.00
CCN1C(C(=O)NC23CCC(C(=O)O)(CC2)CC3)C(c2cccc(Cl)c2F)C2(C(=O)Nc3cc(Cl)ccc32)C12CCCCC2 (stereo not drawn) + Cc1c(S(C)(=O)=O)c(-c2cc(F)cc(N3CCN(c4ccc(NS(=O)(=O)c5ccc(NC(CCN6CCC(C(=O)OCCCP(=O)(O)O)CC6)CSc6ccccc6)c(S(=O)(=O)C(F)(F)F)c5)cc4)CC3)c2)c(-c2ccc(Cl)cc2)n1C(C)C,pIC50,[1],< 5.52
same,pIC50,[2],< 5.52
same,pIC50,[3],< 5.52
same,pIC50,[4],< 5.52
same,pIC50,"curve of first compound, second compound 3.16 µM",< 5.52
same,pIC50,"curve of first compound, second compound 10 µM",6.13
same,"viability, T/C",[5],74.8%
same,"viability, T/C",[6],50%
same,"viability, T/C",[7],76.3%
same,"viability, T/C",[8],79.4%
same,"viability, T/C",[9],61.8%
same,"viability, T/C",[10],79.5%
same,"viability, T/C",[11],83.2%
same,"viability, T/C",[12],104%
same,"viability, T/C",[13],84%
same,"viability, T/C",[14],87.6%
same,"viability, T/C",[15],55.4%
same,"viability, T/C",[16],71%
same,"viability, T/C",[17],80.8%
same,"viability, T/C",[18],95.1%
same,"viability, T/C",[19],84.9%
same,"viability, T/C",[20],78%
same,"viability, T/C",[21],65.7%
same,"viability, T/C",[22],54.1%
same,"viability, T/C",[23],67.7%
same,"viability, T/C",[24],69.4%
same,"viability, T/C",[25],75.5%
same,"viability, T/C",[26],56%
same,"viability, T/C",[27],93.4%
same,"viability, T/C",[28],49.8%
same,"viability, T/C","second compound 3.16 µM, first compound 0.00949 µM",57.5%
same,"viability, T/C","second compound 3.16 µM, first compound 0.03 µM",56.8%
same,"viability, T/C","second compound 3.16 µM, first compound 0.0949 µM",73.6%
same,"viability, T/C","second compound 3.16 µM, first compound 0.3 µM",46.8%
same,"viability, T/C","second compound 3.16 µM, first compound 0.949 µM",49.3%
same,"viability, T/C","second compound 3.16 µM, first compound 3 µM",60.9%
same,"viability, T/C","second compound 10 µM, first compound 0.00949 µM",55.2%
same,"viability, T/C","second compound 10 µM, first compound 0.03 µM",65.4%
same,"viability, T/C","second compound 10 µM, first compound 0.0949 µM",30.6%
same,"viability, T/C","second compound 10 µM, first compound 0.3 µM",71.8%
same,"viability, T/C","second compound 10 µM, first compound 0.949 µM",43.1%
same,"viability, T/C","second compound 10 µM, first compound 3 µM",36.7%
Cc1nc(N2CCC3(CC2)COC(C)C3N)c(CO)nc1Sc1ccnc(N)c1Cl (stereo not drawn) + CNC(C)C(=O)NC1CN(S(=O)(=O)c2cccc(S(=O)(=O)N3CCC4CCC(C(=O)NC(c5ccccc5)c5ccccc5)N4C(=O)C(NC(=O)C(C)NC)C3)c2)CCC2CCC(C(=O)NC(c3ccccc3)c3ccccc3)N2C1=O,pIC50,"curve of first compound, second compound 0.00316 µM",< 5.52
same,pIC50,"curve of first compound, second compound 0.01 µM",< 5.52
same,pIC50,[1],< 5.52
same,pIC50,[2],< 5.52
same,pIC50,[3],< 5.52
same,pIC50,[4],< 5.52
same,"viability, T/C","second compound 0.00316 µM, first compound 0.00949 µM",112%
same,"viability, T/C","second compound 0.00316 µM, first compound 0.03 µM",91.2%
same,"viability, T/C","second compound 0.00316 µM, first compound 0.0949 µM",91.2%
same,"viability, T/C","second compound 0.00316 µM, first compound 0.3 µM",62.1%
same,"viability, T/C","second compound 0.00316 µM, first compound 0.949 µM",62.1%
same,"viability, T/C","second compound 0.00316 µM, first compound 3 µM",71.1%
same,"viability, T/C","second compound 0.01 µM, first compound 0.00949 µM",100%
same,"viability, T/C","second compound 0.01 µM, first compound 0.03 µM",120%
same,"viability, T/C","second compound 0.01 µM, first compound 0.0949 µM",102%
same,"viability, T/C","second compound 0.01 µM, first compound 0.3 µM",68%
same,"viability, T/C","second compound 0.01 µM, first compound 0.949 µM",55.3%
same,"viability, T/C","second compound 0.01 µM, first compound 3 µM",61%
same,"viability, T/C",[5],83.8%
same,"viability, T/C",[6],91.4%
same,"viability, T/C",[7],96.8%
same,"viability, T/C",[8],81.5%
same,"viability, T/C",[9],84.5%
same,"viability, T/C",[10],60.8%
same,"viability, T/C",[11],87.7%
same,"viability, T/C",[12],84.5%
same,"viability, T/C",[13],87.7%
same,"viability, T/C",[14],72.6%
same,"viability, T/C",[15],74.5%
same,"viability, T/C",[16],64.8%
same,"viability, T/C",[17],96.9%
same,"viability, T/C",[18],85.3%
same,"viability, T/C",[19],82.1%
same,"viability, T/C",[20],71.4%
same,"viability, T/C",[21],42.8%
same,"viability, T/C",[22],64.2%
same,"viability, T/C",[23],103%
same,"viability, T/C",[24],80.8%
same,"viability, T/C",[25],69.4%
same,"viability, T/C",[26],74.5%
same,"viability, T/C",[27],92.5%
same,"viability, T/C",[28],75.7%
